Assays:
MC38 tumors = experiment: M3814 and avelumab in murine colon tumor model MC38 (Example 1); format: in vivo, C57BL6/N mice; details: M3814 150 mg/kg orally once daily, avelumab 400 μg/mouse i.v. days 3, 6, 9; for median time the tumors needed to double in size compared to initial volume at day 0: MC38 in C57BL6/N mice, Kaplan-Meyer evaluation; for T/C value: calculated at day 13
Excerpt: M3814 was applied daily started from day 0; Avelumab was applied on days 3, 6 and 9.
This model allows the use of immunocompetent mice, a necessary requirement to study the T-cell mediated antitumor effect of Avelumab. The experimental set up included the induction of MC38 tumors in C57BL6/N mice by injection of 1×10^6 tumor cells into the right flank of the animals. Tumor growth was followed over time by measuring length and width using a caliper. When tumors were established to an average size of 50-100 mm^3, mice were subdivided in 4 treatment groups with 10 animals each, and treatment started. This day was defined as day 0. Group 1 received vehicle treatment. Group 2 received M3814 orally once daily at 150 mg/kg in a volume of 10 ml/kg. Group 3 received avelumab intravenously once daily at 400 μg/mouse in a volume of 5 ml/kg on days 3, 6 and 9. Group 4 received M3814 orally once daily at 150 mg/kg in a volume of 10 ml/kg and avelumab intravenously once daily at 400 μg/mouse in a volume of 5 ml/kg on days 3, 6 and 9.

[1] = tested on: EMT, fibrosis and VEGF pathway gene signatures in 4T1 tumor tissue; experiment: RNAseq gene signatures of 4T1 tumor tissue (Example 3G); format: in vivo, BALB/c mice; details: tumors harvested day 6
Protocol: Tumor tissues were harvested at Day 6 for RNAseq analysis. Gene expression signatures associated with (A) EMT, (B) fibrosis, and (C) VEGF pathway signatures are presented as box plots. Signature scores are defined as the mean log2 (fold change) among all genes in the signature.
RNAseq was performed with Qiagen targeted RNAseq panels consisting of 1278 total genes. EMT and fibrosis gene signatures were based on Qiagen gene lists and the VEGF pathway signature was based on the Biocarta VEGF pathway in Broad's Canonical Pathways. For these gene sets, signature scores are defined as the mean log2 (fold-change) among all genes in each gene signature. These were calculated by adding a pseudocount of 0.5 TPM to all genes and samples, determining the log2 (TPM), then subtracting the median log 2-TPM for each gene across all samples from the log2-TPM for each gene. Signature scores for gene sets are shown as boxplots.

DNA-PK = DNA-PK (Homo sapiens, UniProt P78527); experiment: Crystallographic and enzyme kinetics studies on DNA-PK; format: biochemical
Excerpt: DNA-PK, together with five additional protein factors (Ku70, Ku80, XRCC4, Ligase IV and Artemis) plays a critical role in the repair of DSB via NHEJ. Kinase activity of DNA-PK is essential for proper and timely DNA repair and the long-term survival of cancer cells.

4T1 mammary tumors = experiment: 4T1 mammary tumor model, tumor volume and survival (Example 3A); details: concurrent dosing; day 10; Trap 492 μg day 0, 2, 4; radiation 8 Gy day 0-3; M3814 150 mg/kg p.o. q.d. day 0-14
Protocol: BALB/c mice were inoculated intramuscularly (i.m.) with 0.5×10^5 4T1 cells (day −6) and treated (n=10 mice/group) with (A-C) isotype control (400 μg i.v.; day 0, 2, 4)+vehicle control (0.2 mL, orally [per os; p.o.], once daily [quaque die; q.d.], day 0-14), M7824 (492 μg i.v.; day 0, 2, 4), radiation (8 Gy, day 0-3), M3814 (150 mg/kg, p.o, q.d., day 0-14), M7824+RT, M7824+M3814, RT+M3814, or M7824+RT+M3814; or (D-F) isotype control (400 μg i.v.; day 4, 6, 8)+vehicle control (0.2 mL, (p.o.), (q.d.), day 0-14), M7824 (492 μg i.v.; day 4, 6, 8), radiation (8 Gy, day 0-3), M3814 (150 mg/kg, p.o, q.d., day 0-14), M7824+RT, M7824+M3814, RT+M3814, or M7824+RT+M3814. A-B, D-E, Tumor volumes were measured twice weekly and presented as (A, D) mean±SEM or (B, E) individual tumor volumes. P-values were calculated by two-way RM ANOVA with Tukey's post-test. C, F, For survival analysis, mice were sacrificed when tumor volumes reached ≈2000 mm^3 and median survival times were calculated.
For efficacy and survival studies, 4T1 cells, 0.5×10^5, were inoculated intramuscularly (i.m.) in the thigh of BALB/c mice on day −6. […]
Tumor sizes for the 4T1 and MC38 models were measured twice per week with digital calipers and recorded automatically using WinWedge software. Tumor volumes were calculated with the following formula: tumor volume (mm^3)=tumor length×width×height×0.5236. […]

[2] = 10 mg/kg dose; cited from earlier work

| Compound | median time the tumors needed to double in size compared to initial volume at day 0 (MC38 tumors) | T/C value (MC38 tumors) | EMT signature score [1] | fibrosis signature score [1] | inhibition of DNA-PK (DNA-PK) | tumor volume (4T1 mammary tumors) | pharmacokinetics profile [2] | receptor occupancy [2] | tolerability [2] |
| --- | --- | --- | --- | --- | --- | --- | --- | --- | --- |
| COc1ccc([C@@H](O)c2cc(-c3ncnc4cc(N5CCOCC5)ccc34)c(F)cc2Cl)nn1 [Compound M3814, (S)-[2-chloro-4-fluoro-5-(7-morpholin-4-yl-quinazolin-4-yl)-phenyl]-(6-methoxypyridazin-3-yl)-methanol] | 10 days | 47% | no effect on the EMT signature | significantly decreased the score | potent and selective ATP-competitive inhibitor of DNA-PK | did not significantly affect tumor growth | – | – | – |
| avelumab: fully human monoclonal antibody of the immunoglobulin (Ig) G1 isotype that selectively binds to PD-L1 | 13 days | 60% | – | – | – | – | predictable pharmacokinetics profile | excellent receptor occupancy | well tolerated |

Reference: patent publication US20210246208A1, “COMBINED INHIBITION OF PD-1/PD-L1, TGFB AND DNA-PK FOR THE TREATMENT OF CANCER” (MERCK PATENT GMBH, priority 2018, published 2021)
